From article PMC13360702, “An Agonist/Antagonist Photo‐Switchable Vitamin D Mimetic Enables Bidirectional Optical Control of VDR” (Angewandte Chemie (International Ed. in English), 2026)
Where two headings read alike, the source gives them in different places.

Legend:
[1] = target: T1, VDR (Homo sapiens, UniProt P11473); experiment: Gal4‐VDR hybrid reporter gene assay, agonist mode; assay type: cell-based; details: HEK293T cells, mean±S.E.M., n≥3
T1 construct: -CMV-VDR-LBD coding for the hinge region and; expressed in transfected cells; host or cells: HEK293T
T1 sequence (P11473 127-423 limits assumed): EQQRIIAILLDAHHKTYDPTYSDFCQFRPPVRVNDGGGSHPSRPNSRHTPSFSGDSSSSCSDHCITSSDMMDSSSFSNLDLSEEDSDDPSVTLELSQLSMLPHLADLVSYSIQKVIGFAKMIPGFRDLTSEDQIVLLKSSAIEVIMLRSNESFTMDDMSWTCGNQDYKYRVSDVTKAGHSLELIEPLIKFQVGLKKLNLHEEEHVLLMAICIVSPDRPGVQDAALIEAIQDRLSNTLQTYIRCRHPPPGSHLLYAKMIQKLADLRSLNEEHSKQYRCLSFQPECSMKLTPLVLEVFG
Procedure: FIGURE 2 Development and characterization of the light‐activated vitamin D mimetic photo‐vitD (10). (a) Structure activity relationship of photo‐switchable VDR agonists 4–10. Compounds were tested in a cellular Gal4‐VDR hybrid reporter gene assay. Relative activation is normalized to the effect of 2 (1 µM) set as 100% activation. The (Z)‐states of the compounds were maintained with a Cell‐Disco [24] (370 nm). […] Data in agonist (EC50) and antagonist mode (IC50; vs. 0.3 µM 2) are shown for (E)‐ and (Z)‐10. The corresponding dose‐response curves are shown in (d). (b) Predicted binding mode of (E)‐7 (green) in the VDR ligand binding site (pdb ID 4g1d). […] (c) Predicted binding mode of (Z)‐10 (yellow) in the VDR ligand binding site. The altered regiochemistry conveys strong preference for the light‐induced (Z)‐configuration and the extended naphthoic acid motif enables a strong ionic contact to R302. (d) Dose‐response curves of (E)‐ (dark) and (Z)‐10 (370 nm) in the Gal4‐VDR reporter gene assay in agonist (top) and antagonist mode (bottom, with 0.3 µM calcitriol (2)). (Z)‐10 activated VDR; (E)‐10 and (Z)‐10 antagonized VDR activation by 0.3 µM calcitriol (2). (Z)‐10 was maintained with a Cell‐Disco [24] (370 nm). Data are the mean±S.E.M. relative VDR act. vs. 0.3 µM calcitriol (2), n≥3. (e) Activity profile of 10 (1 µM) on nuclear receptors showing exclusive VDR activation by the light‐activated state. 10 was tested in a panel of uniform Gal4‐NR hybrid reporter gene assays. (Z)‐10 was maintained with a Cell‐Disco [24] (370 nm). Data are the mean±SD, n = 3. (f) Representative UV/Vis spectra of 10 as (E)‐ (dark) and (Z)‐states (PSS 365 nm), and after switching back to (E) with 465 nm. (g) (E)/(Z)‐ratios of 10 in the dark‐adapted state, after illumination at 365 nm for 5 min and after switching back from mostly‐(Z) with 465 nm for 5 min. (h) 10 could be rapidly and reversibly switched between the (E)‐ and (Z)‐states over multiple cycles by alternating irradiation at 365 and 465 nm. Absorbance was measured at 351 nm with a 25 µM solution in DMSO, one cycle is 30 sec. […] 10 was pre‐illuminated at 365 nm for 30 min and then kept in the dark. (E)/(Z) ratios were measured by NMR. (j) Binding mode prediction of (E)‐ and (Z)‐10 to the VDR‐antagonist complex 2zxm (residues numbered according to [21]). (Z)‐10 (yellow) forms an agonist‐like binding mode with several polar interactions at both ends of the pocket. (E)‐10 (cyan) is also anchored at the distal end of the pocket by an H‐bond network with R302 and the D176 backbone but due to the (E)‐configuration, the β‐naphthoic acid residue protrudes deeper and the pentan‐3‐ol motif rotates away from H333/H423. Therefore, (E)‐10 lacks stabilizing/activating contacts with the H333/H423 region rationalizing its antagonist properties.
Gal4-hybrid reporter gene assays. Reporter gene assays were performed in HEK293T cells (German Collection of Microorganisms and Cell Culture GmbH, DSMZ) as reported previously using Gal4 -NR LBD fusion receptor plasmids each coding for the hinge region and LBD of the canonical isoform of the respective human nuclear receptor.[7,8] pFR-Luc (Stratagene, La Jolla, CA, USA) served as a reporter plasmid and pRL-SV40 (Promega, Madison, WI, USA) was used for normalization of transfection efficiency and test compound toxicity. Cells were cultured in Dulbecco’s modified Eagle’s medium (DMEM), high glucose supplemented with 10% fetal calf serum (FCS), sodium pyruvate (1 mM), penicillin (100 U/mL), and streptomycin (100 μg/mL) at 37 °C and 5% CO2, and seeded in 96-well plates (3 × 10^4 cells/well). After 24 h, the medium was changed to Opti -MEM without supplements, and cells were transiently transfected using Lipofectamine LTX reagent (Invitrogen, Carlsbad, CA, USA) according to the manufacturer’s protocol. Five hours after transfection, cells were incubated with the test compounds […]

[2] = tested on: nuclear receptors related to VDR; experiment: panel of uniform Gal4‐NR hybrid reporter gene assays (selectivity); assay type: cell-based, human; details: 1 µM; both (E)‐ and (Z)‐configuration; (Z) maintained with Cell‐Disco (370 nm)
Procedure: (§1) FIGURE 2 Development and characterization of the light‐activated vitamin D mimetic photo‐vitD (10). (a) Structure activity relationship of photo‐switchable VDR agonists 4–10. Compounds were tested in a cellular Gal4‐VDR hybrid reporter gene assay. Relative activation is normalized to the effect of 2 (1 µM) set as 100% activation. The (Z)‐states of the compounds were maintained with a Cell‐Disco [24] (370 nm). […] Data in agonist (EC50) and antagonist mode (IC50; vs. 0.3 µM 2) are shown for (E)‐ and (Z)‐10. The corresponding dose‐response curves are shown in (d). (b) Predicted binding mode of (E)‐7 (green) in the VDR ligand binding site (pdb ID 4g1d). […] (c) Predicted binding mode of (Z)‐10 (yellow) in the VDR ligand binding site. The altered regiochemistry conveys strong preference for the light‐induced (Z)‐configuration and the extended naphthoic acid motif enables a strong ionic contact to R302. (d) Dose‐response curves of (E)‐ (dark) and (Z)‐10 (370 nm) in the Gal4‐VDR reporter gene assay in agonist (top) and antagonist mode (bottom, with 0.3 µM calcitriol (2)). (Z)‐10 activated VDR; (E)‐10 and (Z)‐10 antagonized VDR activation by 0.3 µM calcitriol (2). (Z)‐10 was maintained with a Cell‐Disco [24] (370 nm). […] Absorbance was measured at 351 nm with a 25 µM solution in DMSO, one cycle is 30 sec. […] (E)/(Z) ratios were measured by NMR. […]

[3] = photophysical characterization (photo‐switching, thermal relaxation); assay type: physicochemical; details: alternating irradiation at 365 and 465 nm; 25 µM solution in DMSO
Procedure: as §1

[4] = target: T1, VDR; experiment: Gal4‐VDR hybrid reporter gene assay, antagonist mode (vs. 0.3 µM calcitriol (2)); assay type: cell-based; details: dark‐adapted (E)‐state; vs. 0.3 µM 2 (calcitriol); read-out: VDR modulation dark (E): IC50 (antagonist mode)
Procedure: as §1

## CCCc1cc(C(O)(CC)CC)ccc1-c1ccc(/N=N/c2ccc3cc(C(=O)O)ccc3c2)cc1C [compound 10]
[1]; (Z)‐state maintained with Cell‐Disco (370 nm), read-out: VDR modulation light-activated (Z): EC50
  EC50: 170 nM
[1]; dark‐adapted (E)‐state, read-out: VDR modulation dark (E): EC50
  EC50: > 10000 nM
[2]
  activity on nuclear receptors related to VDR: no activity
[3]
  reversible switching between (E)‐ and (Z)‐states over multiple cycles: no fatigue
[4]
  IC50: 600 ± 100 nM
